{"source": "patent US20230123140A1", "about": "“DOSE TREATMENTS OF TAUOPATHIES” (AC Immune SA, priority 2020, published 2023)", "key": {"[1]": {"test_system": "healthy subjects", "experiment": "First-in-human study, multiple ascending dose (MAD) part: safety and tolerability", "type": "in vivo", "details": "MAD cohorts", "text": "A First-In-Human, Randomized, Placebo-Controlled, Double-Blind, SAD/MAD Study to Assess the Safety, Tolerability, Pharmacokinetics, and Pharmacodynamics of ACI-3024\nThe objective of the study is to assess the safety, tolerability, pharmacokinetics (PK), and pharmacodynamics (PD) of single ascending doses (SAD) and multiple ascending doses (MAD) of ACI-3024 in a first-in-human, randomized, placebo-controlled, double-blind, sequential SAD/MAD study with open-label food effect and pharmacodynamic assessment arms. The study comprises different parts to be conducted in Healthy Volunteers: • 1) one Single Ascending Dose (SAD) part in which several cohorts are being investigated with single ascending doses of ACI-3024. The food effect is also explored in this part. • 2) one Multiple Ascending Dose (MAD) part in which several cohorts are being investigated with multiple ascending doses of ACI-3024. Each study part is assessing the safety, tolerability, pharmacokinetics and pharmacodynamics of ACI-3024.\nThis part was conducted in elderly non-Japanese healthy subjects (MAD HV1 to MAD HV3 cohorts) and in non-elderly Japanese and non-Japanese healthy male subjects (MAD HV4 cohort).\nThe healthy subject part of Part III was a multiple dose, sequential group study. Overall, 30 healthy elderly male or female non Japanese subjects are being studied in 3 cohorts (Cohorts MAD HV1 to MAD-HV3), with each cohort consisting of 10 subjects. A cohort of 10 healthy non-elderly male Japanese and non-Japanese subjects were enrolled (MAD HV4) to collect safety, tolerability, PK, and PD biomarker data and to enable direct comparisons between non-elderly Japanese and non-Japanese subjects after multiple doses. The dose used in this cohort is based on previously conducted cohorts in non Japanese elderly healthy subjects to assess the effect of multiple doses in non-elderly male Japanese subjects compared to non-elderly non-Japanese male subjects. The MAD HV4 cohort was dosed in parallel with the MAD HV3 cohort. […]"}, "[2]": {"experiment": "Pharmacokinetics in SAD and MAD studies (plasma, urine)", "type": "in vivo", "experimental": "Secondary Objectives: • To assess the PK of ACI-3024 in plasma, urine, and cerebrospinal fluid (CSF). • To compare the plasma and urine PK parameters of ACI-3024 following single oral doses in the fed and fasting states.\nIn each of Cohorts S1 to S5, 6 subjects (including 3 Japanese subjects in Cohorts S2 through S5) received ACI-3024 and 2 subjects (including 1 Japanese subject in Cohorts S2 through S5) received placebo. All doses were administered in the fasting state in accordance with a randomization schedule on the morning of Day 1, except for subjects in the food-effect cohort (Cohort S4), who were dosed 30 minutes after starting a high-fat breakfast in Treatment Period 2 only. Each subject received only a single dose of ACI-3024 or placebo during the study, except for subjects in the food effect cohort, who received a single dose of ACI-3024 or placebo in the fasting state followed by a single dose of ACI-3024 in the fed state. Thus, subjects in Cohort S4 received either 2 identical doses of ACI-3024 (6 subjects) or 1 dose of placebo and 1 dose of ACI-3024 (2 subjects). Six subjects of Cohort S4 received 750 mg dose of ACI-3024 and 2 subjects received placebo. After a period of wash-up all 8 subjects of Cohort S4 received a fat-breakfast and a 750 mg dose of ACI-3024.\nCohorts MAD-HV1 to MAD-HV3 comprised 10 elderly non-Japanese male or female subjects, 8 were treated with ACI-3024 and 2 were being given placebo. Cohort MAD-HV4 comprised 5 non-elderly Japanese subjects (4 treated with ACI-3024 and 1 given placebo) and 5 […] (4 treated with ACI-3024 and 1 given placebo). Only subjects from MAD HV3 cohort underwent CSF samplings to explore the CSF inflammatory markers, CSF PK, and CSF PD of ACI-3024. For all subjects, dosing was on […], inclusive, and a final single dose administration occurred on […]. Dose in cohort MAD HV1 was 500 mg of ACI-3024 or placebo, QD, fasted. Dose in cohorts MAD HV2 and MAD HV4 was 500 mg of ACI-3024 or placebo, BID (“bis in die” ie., twice a day), fed. Dose in cohort MAD HV3 was 1400 mg of ACI-3024 or placebo, QD (“quaque die” (once a day), fed."}, "[3]": {"test_system": "Tg4510 transgenic mouse model", "experiment": "Studies of ACI-3024 in the Tg4510 transgenic mouse model (CSF target level)", "type": "in vivo", "details": "derived from studies in Tg4510 transgenic mouse model", "experimental": "The present invention is directed to a compound ACI-3024 for use in the treatment, prevention or alleviation of a disorder or an abnormality associated with Tau protein aggregates or a tauopathy comprising administering said compound at an amount up to or equal to 1500 mg/day to a human subject in need thereof wherein the compound ACI-3024 is constantly present in the human subject CSF at a concentration above or equal to 30 nM level at predose, preferably above or equal to 90 nM level at predose. The predefined predose level of ACI-3024 of 30 nM is derived from studies of ACI-3024 in the Tg4510 transgenic mouse model which reflects the clinical manifestation of tauopathies and determines the minimum concentration of the compound in the CSF necessary to achieve clinical efficacy before another dose of the same compound is given (ie a threshold value below which efficacy would be lost). Preferably, the compound ACI-3024 is present in the human subject CSF at a concentration above or equal to 30 nM, preferably above or equal to 90 nM, during the treatment."}, "[4]": {"experiment": "4-week toxicity study in mice followed by 2 weeks of recovery", "type": "in vivo, mouse", "details": "both sexes, CD1, mouse, in vivo, po", "experimental": "(§1) This study was conducted to evaluate the potential toxicity of ACI-3024 when given daily by oral gavage to CD1 mice for 4 weeks, followed by a 2-week recovery period. Doses of 100, 300 and 1000 mg/kg were administered by p.o. to 10 animals/sex/group daily. The control animals were administered vehicle. The dose volume was 10 mL/kg for all groups.\n(§2) Clinical signs, body weights, food consumption, ophthalmology, clinical pathology were evaluated. For each sex/group, a complete necropsy was conducted on 10 animals at the end of the dosing period and on 6 (only control and high dose groups) surviving animals at end of the recovery period."}, "[5]": {"test_system": "CD1 mice", "experiment": "4-week toxicity study in mice followed by 2 weeks of recovery", "type": "in vivo, mouse", "details": "1000 mg/kg/day p.o., Day 9", "experimental": "as §1, §2"}, "[6]": {"details": "statistical assessment, healthy volunteers"}}, "note": "Like-named read-outs stand apart in the source and are kept apart here.", "data": [{"compound": "Fc1ccc2c3c([nH]c2c1)CCN(c1ccc2oc(N4CCOCC4)nc2c1)C3", "note": "[ACI-3024]", "values": [{"measurement": "serious adverse events of liver injury possibly related to study drug", "setting": "[1]; 14 days", "result": 2}, {"measurement": "AEs considered related or possibly related to study drug", "setting": "[1]; 14 days, of 89 AEs", "result": 33}, {"measurement": "SAEs", "setting": "[1]; dose below 1000 mg/day", "result": "did not show SAEs"}, {"measurement": "Tmax", "setting": "[2]; both sexes, human, plasma, oral, fasting state, single or multiple doses, read-out: median time of maximum observed plasma concentration (Tmax)", "result": "1.25 to 2.5", "unit": "h"}, {"measurement": "half-life", "setting": "[2]; both sexes, human, plasma, oral, following 14 days of multiple dosing, when calculable, read-out: geometric mean t1/2", "result": "47.5 to 101", "unit": "h"}, {"measurement": "food effect on rate of absorption", "setting": "[2]; fed vs fasting state", "result": "reduced the rate of absorption"}, {"measurement": "food effect: increase of overall exposure", "setting": "[2]; fed vs fasting state", "result": "approximately 3 fold"}, {"measurement": "excretion in urine", "setting": "[2]; healthy volunteers", "result": "Only a small amount"}, {"measurement": "half-life", "setting": "[2]; human, plasma, oral, humans, read-out: plasma half-life", "result": "> 24", "unit": "h"}, {"measurement": "half-life", "setting": "[2]; male, human, plasma, oral, following single dose administration, read-out: geometric mean t1/2", "result": "27.7 to 60.5", "unit": "h"}, {"measurement": "accumulation", "setting": "[2]; multiple dosing, QD or BID regimen", "result": "evidence of accumulation"}, {"measurement": "dose proportionality of AUC0-tlast and AUC0-∞", "setting": "[2]; [6]", "result": "dose-proportional increase"}, {"measurement": "dose proportionality of Cmax", "setting": "[2]; [6]", "result": "subproportional increase"}, {"measurement": "minimum predose CSF level necessary for efficacy (target)", "setting": "[3]", "result": 30, "unit": "nM"}, {"measurement": "NOAEL at 4 weeks", "setting": "[4]", "result": 300, "unit": "mg/kg/day"}, {"measurement": "mortality / premature euthanasia", "setting": "[5]", "result": "only one female animal was prematurely euthanized"}]}]}
